This assay concerns the target T1, human cannabinoid CB2 receptor (Homo sapiens, UniProt P34972).
T1 construct: expressed in transfected cells; host or cells: Saccharomyces cerevisiae strain MMY23 (cassette integrated at the ura3 locus, GPD promoter)
Kind of assay: Cannabinoid CB2 receptor agonist activity in yeast (Saccharomyces cerevisiae) cells expressing the receptor, FDGlu fluorescence readout.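 As to Emax: percent of the maximal response of the reference agonist HU210.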 The format is cell-based. Conditions: for Emax: read-out: efficacy (Emax) at the cloned human cannabinoid CB2 receptor. As for the experimental part:
Determination of Cannabinoid CB2 Receptor Agonist Activity
The cannabinoid CB2 receptor agonist activity of the compounds of formula (I) was determined in accordance with the following experimental method.
Yeast (Saccharomyces cerevisiae) cells expressing the human cannabinoid CB2 receptor were generated by integration of an expression cassette into the ura3 chromosomal locus of yeast strain MMY23. This cassette consisted of DNA sequence encoding the human CB2 receptor flanked by the yeast GPD promoter to the 5′ end of CB2 and a yeast transcriptional terminator sequence to the 3′ end of CB2. MMY23 expresses a yeast/mammalian chimeric G-protein alpha subunit in which the C-terminal 5 amino acids of Gpa1 are replaced with the C-terminal 5 amino acids of human Gαi3 (as described in Brown et aL (2000), Yeast 16:11-22). Cells were grown at 30° C. in liquid Synthetic Complete (SC) yeast media (Guthrie and Fink (1991), Methods in Enzymology, Vol. 194) lacking uracil, tryptophan, adenine and leucine to late logarithmic phase (approximately 6 OD600/ml).
Agonists were prepared as 10 mM stocks in DMSO. […] Agonist solutions in DMSO (1% final assay volume) were transferred into black, clear bottom, microtitre plates from NUNC (96- or 384-well). […] This mixture (50 ul per well for 384-well plates, 200 ul per well for 96-well plates) was added to agonist in the assay plates (Multidrop 384, Labsystems). After incubation at 30° C. for 24 hours, fluorescence resulting from degradation of FDGlu to fluorescein due to exoglucanase, an endogenous yeast enzyme produced during agonist-stimulated cell growth, was determined using a Spectrofluor microtitre plate reader (Tecan; excitation wavelength: 485 nm; emission wavelength: 535 nm). Fluorescence was plotted against compound concentration and iteratively curve fitted using a four parameter fit to generate a concentration effect value. […] Equieffective molar ratio (EMR) values were calculated from the equation EMR=EC50 [compound X]/EC50 [HU210]
Where EC50 [compound X] is the EC50 of compound X and EC50 [HU210] is the EC50 of HU210.

[1] abbreviates: agonist activity, yeast cells, 24 hours at 30° C., read-out: EC50 at the cloned human cannabinoid CB2 receptor.

Where two headings read alike, the source gives them in different places.

By EC50 is commonly meant the concentration at which the effect is half-maximal. The Emax is the size of the effect at its maximum, as opposed to the concentration needed.

T1 sequence (P34972 whole entry): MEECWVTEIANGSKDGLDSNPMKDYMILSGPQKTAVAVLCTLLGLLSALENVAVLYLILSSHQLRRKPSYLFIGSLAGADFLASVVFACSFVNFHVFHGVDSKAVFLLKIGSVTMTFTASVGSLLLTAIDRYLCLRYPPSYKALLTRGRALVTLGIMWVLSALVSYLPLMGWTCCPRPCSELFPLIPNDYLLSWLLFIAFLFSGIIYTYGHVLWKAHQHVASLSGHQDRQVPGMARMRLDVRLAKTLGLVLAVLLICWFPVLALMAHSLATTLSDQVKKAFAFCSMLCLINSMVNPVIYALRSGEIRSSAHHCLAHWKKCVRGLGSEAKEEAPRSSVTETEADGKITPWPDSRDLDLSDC

With `O=C(NCc1ccnc(F)c1)c1cnc(Nc2ccc(Cl)cc2Cl)cc1C(F)(F)F` [Example 51, N-(2-Fluoro-pyridin-4-ylmethyl)-6-(2,4-dichloro-phenylamino)-4-trifluoromethyl-nicotinamide], the EC50 is below 300 nM and the maximal response (Emax) is above 50%.
For `O=C(NCc1ccc(F)cc1)c1cnc(Nc2ccc(Cl)cc2Cl)cc1C(F)(F)F` [Example 52] the same measures were below 300 nM and above 50%.
In the same order, the values of `O=C(NCc1ccc(F)cc1)c1cnc(Nc2cc(Cl)cc(Cl)c2)cc1C(F)(F)F` [Example 53] are below 300 nM and above 50%.
As for `O=C(NCc1ccnc(F)c1)c1cnc(Nc2cc(Cl)cc(Cl)c2)cc1C(F)(F)F` [Example 54, N-(2-Fluoro-pyridin-4-ylmethyl)-6-(3,5-dichloro-phenylamino)-4-trifluoromethyl-nicotinamide], the EC50 is below 300 nM and the Emax is above 50%.
For `O=C(NCc1ccc(F)cc1)c1cnc(Nc2ccc(Cl)c(Cl)c2)cc1C(F)(F)F` [Example 55, N-(4-Fluoro-benzyl)-6-(3,4-dichloro-phenylamino)-4-trifluoroinethyl-nicotinainide] the same measures were below 300 nM and above 50%.
On to `Cc1ccc(Cl)cc1Nc1cc(C(F)(F)F)c(C(=O)NCc2ccncc2)cn1` [Example 57, N-(Pyridin-4-ylmethyl)-6-(2-methyl-5-chloro-phenylamino)-4-trifluoromethyl-nicotinamide], for which the EC50 is below 300 nM and the maximal response (Emax) was above 50%.
In the same order, the values of `Cc1cc(Cl)ccc1Nc1cc(C(F)(F)F)c(C(=O)NCc2ccncc2)cn1` [Example 58, N-(Pyridin-4-ylmethyl)-6-(2-methyl-4-chloro-phenylamino)-4-trifluoromethyl-nicotinamide] are below 300 nM and above 50%.
As for `CC(C)c1cc(Nc2ccc(Cl)cc2Br)ncc1C(=O)NCc1ccc(F)cc1` [Example 70, 6-(2-Bromo-4-chloro-phenylamino)-N-(4-fluoro-benzyl)-4-isopropyl-nicotinamide], the EC50 was below 300 nM and the maximal response (Emax) was above 50%.
In the same order, the values of `CC(C)c1cc(Nc2ccc(F)cc2Cl)ncc1C(=O)NCc1ccc(F)cc1` [Example 71, 6-(2-Chloro-4-fluoro-phenylamino)-N-(4-fluoro-benzyl)-4-isopropyl-nicotinamide] are below 300 nM and above 50%.
Turning to `CC(C)c1cc(Nc2cc(Cl)ccc2F)ncc1C(=O)NCc1ccc(F)cc1` [Example 72, 6-(5-Chloro-2-fluoro-phenylamino)-N-(4-fluoro-benzyl)-4-isopropyl-nicotinamide], under setting [1], the EC50 is below 300 nM.
The same measure, in the same setting: the same measure for `Cc1cc(C#N)ccc1Nc1cc(C(C)C)c(C(=O)NCc2ccc(F)cc2)cn1` [Example 73, 6-(4-Cyano-2-methyl-phenylamino)-N-(4-fluoro-benzyl)-4-isopropyl-nicotinamide]: below 300 nM.
For the compound `CC(C)c1cc(Nc2cc(Cl)ccc2Cl)ncc1C(=O)NCc1ccc(F)cc1` [Example 74, 6-(2,5-Dichloro-phenylamino)-N-(4-fiuoro-benzyl)-4-isopropyl-nicotinamide], the half-maximal effective concentration (EC50) is 300 to 1000 nM and the maximum response (Emax) was above 50%.
Turning to `CC(C)c1cc(Nc2ccc(Br)c(Cl)c2)ncc1C(=O)NCc1ccc(F)cc1` [Example 75, 6-(4-Bromo-3-chloro-phenylamino)-N-(4-fluoro-benzyl)-4-isopropyl-nicotinamide], the concentration giving a half-maximal response (EC50) fell in the range of 300 to 1000 nM and the Emax was above 50%.
Regarding `CC(C)c1cc(Nc2ccc(C(F)(F)F)c(F)c2)ncc1C(=O)NCc1ccc(F)cc1` [Example 76, N-(4-fluoro-benzyl)-6-(3-Fluoro-4-trifluormethyl-phenylamino)-4-isopropyl-nicotinamide], under setting [1], the EC50 lay in the range of 300 to 1000 nM.
`O=C(NCc1ccncc1)c1ccc(Nc2cccc(Cl)c2)nc1C(F)(F)F` [Example 78, 6-(3-Chloro-phenylamino)-N-(pyridin-4-ylmethyl)-2-trifluoromethyl-nicotinamide]: the EC50 was below 300 nM and the Emax was above 50%.
